Measured values taken from US10188858B2, “Method and device for treating a tissue with a high frequency electromagnetic field” (University of Cincinnati, priority 2013, dated 2019).

Tests used:
[1] = test system: Murine microvascular endothelial cells; assay: In vitro capillary morphogenesis (nanofiber-based angiogenesis assay) with inhibitors; type: cell-based, C57 mice
Method: Cells from passages 4-9 were used. […] Capillary morphogenesis was assessed using nanofiber-based angiogenesis assay previously developed in the lab, in which endothelial cells seeded on RAD16-II peptide nanofiber hydrogel (SynBioSci Corporation, CA, USA) undergo spontaneous capillary morphogenesis with clearly identifiable lumens in the absence of external angiogenic growth factors. Endothelial cells were seeded on the surface of 1% (w/v) hydrogel in cell culture inserts (Millipore, MA, USA) at a seeding density of 10^5 cells/cm^2. Cells seeded on 5% gelatin-coated inserts were used as a negative control. Cells were labeled with CellTracker dye (Invitrogen, USA) before seeding or with Phalloidin-TRITC (Sigma Aldrich, St Louis, Mo., USA). After EF exposure, samples (at least N=10 separate EF exposure experiments per group) were fixed with 2% formaldehyde, and images of the sample surface (n=5 per sample) were captured at 20× magnification using an inverted fluorescent microscope (Olympus IX81; Olympus, Pa., USA). The characteristic size of capillary-like networks was determined using correlation analysis and custom-written MATLAB code (The Math Works, MA, USA).

VEGF = VEGF protein release by endothelial cells (ELISA) with inhibitors; type: cell-based, C57 mice
Source text: Cells from passages 4-9 were used. […] VEGF and PIGF are two major angiogenic cytokines acting through VEGF receptors pathway. VEGF binds to both VEGFR1 and VEGFR2 receptors, although signals through VEGFR2. In contrast, PIGF which only binds to and signals through VEGFR1. To determine the effect of EF on the VEGF and PIGF protein release by endothelial cells, culture medium samples (at least N=6 separate experiments) were used to measure VEGF and PIGF protein levels using appropriate ELISA kits (R&D Systems, MN, USA).

MEK = assay: Total and phosphorylated MEK levels (sandwich ELISA) with inhibitors; type: cell-based, C57 mice
Source text: (§1) Murine microvascular endothelial cells were isolated from the lungs of C57 mice (Jackson Laboratory, Maine, USA) as described previously. Cells were doubly sorted using PECAM-1- and ICAM-2-conjugated magnetic beads (Invitrogen Corporation, CA, USA) and cultured in medium M199 (HyClone, UT, USA) supplemented with 10% fetal bovine serum (FBS; Atlanta Biologicals, GA, USA), 1% antibiotic/antimycotic (AB/AM; Atlanta Biologicals, USA), 1% heparin (Sigma-Aldrich, MO, USA) and 1Ong/mL endothelial growth factor supplement (Sigma-Aldrich, MO, USA). Cells from passages 4-9 were used. All experiments were conducted in the culture medium (medium M199, 10% FBS, 1% antibiotic/antimycotic and 1% heparin) without additional growth factor supplementation.
(§2) Capillary morphogenesis, and MAPK pathways activation were quantified following 12 hours of EF exposure, and the analyses of VEGF expression, cell proliferation and apoptosis were conducted up to 24 hours of EF exposure. The experimental groups included endothelial cells exposed to high frequency EF, low frequency EF and a group not exposed to EF.
(§3) After EF exposure, cells were lysed using buffer containing 20 mM Tris-HCl, 150 mM NaCl, 1 mM Na2EDTA, 1 mM EGTA, 1% Triton, 2.5 mM sodium pyrophosphate, 1 mM beta-glycerophosphate, 1 mM Na3VO4, 1 μg/ml leupeptin and 1 mM phenylmethylsulfonyl fluoride (PMSF). The total protein concentration in each sample lysate was determined using CoomassiePlus Assay Kit (Thermo Fisher Scientific, IL, USA). 10 μg of total protein was used for all MAPK pathway ELISAs. The total and phosphorylated levels of ERK, MEK, p38 and JNK proteins were quantified using appropriate sandwich ELISA kits (Cell Signaling Technology, MA, USA). MEK-cRaf complex levels and free (unbound) MEK levels were quantified according to previously described protocols with modifications. The total MEK levels are presented in optical densities and phosphorylated MEK, MEK-cRaf and pMEK-cRaf levels are normalized to total MEK levels. For negative control, β-actin (Invitrogen, USA) was immunoprecipitated from the lysate and subjected to ELISAs. All ELISA assays were performed in duplicates or triplicates, with all experiments repeated at least N=6 times.
To determine the role of VEGF signaling in EF-mediated angiogenic responses, experiments were repeated in the presence of 0.1 μg/mL soluble anti-mouse VEGF blocking antibody (R&D Systems, MN, USA), or 5 μM SU5416 (Sigma-Aldrich, MO, USA), a specific pharmacological VEGFR2inhibitor, or in the presence of 10 μM U0126 MEK inhibitor (Sigma-Aldrich, MO, USA). […] To examine the role of PI3K, Ca^2+ and eNOS signaling in EF-mediated MEK activation, cells were treated with 10 μM LY294002 (PI3K inhibitor), 10 μM BAPTA (Ca^2+ chelator), or 200 μM Nω-Nitro-L-arginine methyl ester hydrochloride (L-NAME, eNOS inhibitor),respectively, and the total and phosphorylated MEK levels were measured using ELISA. All inhibitors were added to the culture supernatant and pre-incubated for one hour to equilibrate respective target blocking prior to EF exposure. All analyses were done in duplicates/triplicates, and all inhibitor experiments were repeated at least N=3 times.

MEK-cRaf complex = conditions: high frequency EF in the presence of 10 μM U0126, compared to low frequency or no-EF groups
Source text: as §1, §2
as §3, with “All ELISA assays were performed in duplicates or triplicates, with all experiments repeated at least N=6 times.” left out

[2] = 10 μM U0126, all experimental groups, compared to no inhibitor controls
[3] = 10 μM U0126, high frequency EF vs low frequency EF and no-EF groups

## Cc1cc(C)c(/C=C2\C(=O)Nc3ccccc32)[nH]1 [SU5416]
[1]; 5 μM SU5416, all experimental groups, including no-EF controls, 12 hours
  capillary morphogenesis: completely abolished
VEGF; 5 μM SU5416, all experimental groups, including no-EF controls
  VEGF release: significantly reduced
MEK; 5 μM SU5416, 7.5 GHz EF vs low frequency and no-EF controls
  high frequency EF-induced MEK phosphorylation: did not block

## COC(=O)[C@@H](N)CCCNC(=N)N[N+](=O)[O-].Cl [L-NAME, Nω-Nitro-L-arginine methyl ester hydrochloride]
MEK; 200 μM L-NAME, high frequency EF
  EF-induced increase in pMEK: abolished
MEK; 200 μM L-NAME, no-EF controls
  base pMEK levels: did not affect

## N#CC(=C(/N)Sc1ccccc1N)/C(C#N)=C(\N)Sc1ccccc1N [U0126]
[1]; [2]
  capillary morphogenesis (network size): significantly reduced
[1]; [3]
  effect of high frequency EF on capillary morphogenesis: effectively reversed
VEGF; [2]
  VEGF release by endothelial cells: significantly reduced
VEGF; [3]
  effect of high frequency EF on VEGF release: effectively reversed
MEK; presence of 10 μM U0126
  total concentration of MEK: did not affect
MEK-cRaf complex
  free MEK levels: increased
  phosphorylation of MEK-cRaf complex (pMEK-cRaf): reduced
  protein levels of MEK-cRaf complex: reduced

## O=C(O)CN(CC(=O)O)c1ccccc1OCCOc1ccccc1N(CC(=O)O)CC(=O)O [BAPTA]
MEK; 10 μM BAPTA, high frequency EF and no-EF groups
  MEK phosphorylation levels: significantly reduced
MEK; in the presence of 10 μM BAPTA
  phosphorylated MEK levels in high frequency EF group compared to no-EF controls: lower
